Measured values: patent US20060142323A1, “Dual binding site acetylcholinesterase inhibitors for the treatment of alzheimer's disease” (priority 2002, published 2006)

How the values were obtained:
[1] = biological target: T1, AChE from bovine erythrocytes (Bos taurus, UniProt P23795); assay: Acetylcholinesterase (AChE) inhibition (from bovine erythrocytes), Ellman method at 30° C., Digiscan 340T; assay type: biochemical; conditions: bovine erythrocytes AChE, 30° C., 5 min preincubation; read-out: IC50 AchE
T1 construct: 0.02 units AChE (Sigma Chemical Co. from bovine erythrocytes); purchased Sigma Chemical Co; host or cells: bovine erythrocytes
T1 sequence (P23795 31-614 isoform P23795-2 limits assumed): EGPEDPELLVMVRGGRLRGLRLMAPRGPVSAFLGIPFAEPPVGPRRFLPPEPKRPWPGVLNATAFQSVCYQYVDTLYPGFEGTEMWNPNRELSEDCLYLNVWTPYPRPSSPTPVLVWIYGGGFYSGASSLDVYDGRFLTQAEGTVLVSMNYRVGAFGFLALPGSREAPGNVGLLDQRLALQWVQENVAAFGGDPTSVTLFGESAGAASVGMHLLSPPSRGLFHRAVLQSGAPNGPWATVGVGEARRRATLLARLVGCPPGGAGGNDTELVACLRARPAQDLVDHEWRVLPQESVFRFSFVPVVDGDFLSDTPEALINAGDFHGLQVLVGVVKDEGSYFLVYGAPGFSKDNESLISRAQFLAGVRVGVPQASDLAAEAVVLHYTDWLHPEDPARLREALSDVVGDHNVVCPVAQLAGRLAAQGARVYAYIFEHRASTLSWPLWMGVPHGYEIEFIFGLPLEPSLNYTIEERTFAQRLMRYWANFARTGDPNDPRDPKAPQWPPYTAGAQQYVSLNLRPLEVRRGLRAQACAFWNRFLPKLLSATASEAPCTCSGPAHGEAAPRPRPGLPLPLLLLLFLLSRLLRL
Method: Acetylcholinesterase (AChE) Inhibition (from Bovine Erythrocytes)
AChE inhibitory activity was evaluated at 30° C. by the colorimetric method reported by Ellman [Ellman, G. L.; Courtney, K. D.; Andres, B.; Featherstone, R. M. Biochem. Pharmacol. 1961, 7, 88-95]. The assay solution consisted of 0.1 M phosphate buffer pH 8, 0.3 mM 5,5′-dithiobis (2-nitrobenzoic acid) (DTNB, Ellman's reagent), 0.02 units AChE (Sigma Chemical Co. from bovine erythrocytes), and 0.5 mM acetylthiocholine iodide as the substrate of the enzymatic reaction. The compounds tested were added to the assay solution and preincubated with the enzyme for 5 min at 30° C. After that period, the substrate was added. The absorbance changes at 405 nm were recorded for 5 min with a microplate reader Digiscan 340T, the reaction rates were compared, and the percent inhibition due to the presence of test compounds was calculated. The reaction rate was calculated with, at least, triplicate measurements, and the percent inhibition due to the presence of test compound was calculated relative to the compound-free control.

[2] = biological target: T2, BuChE from human serum (Homo sapiens, UniProt P06276); assay: Butyrylcholinesterase (BuChE) inhibition (from human serum); assay type: biochemical; conditions: human serum BuChE, 30° C., 10 min preincubation; read-out: IC50 BuChE
T2 construct: The assay solution consisted of 0.01 units BuChE from human serum; from tissue; host or cells: human serum
Method: Butyrylcholinetersae (BuChE) Inhibition (from Human Serum)
BuChE inhibitory activity was evaluated at 30° C. by the colorimetric method reported by Ellman (Ellman, G. L.; Courtney, K. D.; Andres, B.; Featherstone, R. M. Biochem. Pharmacol. 1961, 7, 88-95]. The assay solution consisted of 0.01 units BuChE from human serum, 0.1 M sodium phosphate buffer pH 8, 0.3 mM 5,5′-dithiobis (2-nitrobenzoic acid) (DTNB, Ellman's reagent), and 0.5 mM butylthiocholine iodide as the substrate of the enzymatic reaction. Enzyme activity was determined by measuring the absorbance at 405 nm during 5 minutes with a microplate reader Digiscan 340T. The tested compounds were preincubated with the enzyme for 10 minutes at 30° C. The reaction rate was calculated with, at least, triplicate measurements.

[3] = test system: human neuroblastoma cell line SH—SY5Y; assay: Toxicity measurement (LDH) in SH-SY5Y cells; assay type: cell-based; conditions: 24 hours exposure
Method: The cytotoxicity effect of the molecules was tested in the human neuroblastoma cell line SH—SY5Y. These cells were cultured in 96-well plates in minimum essential medium, Han's F12 medium, supplemented with 10% fetal bovine serum, 1% glutamine and 1% penicillin/streptomycin, and grown in. a 5% CO2 humidified incubator at 37° C.
The cells were plated at 10^4 cells for each well, at least, 48 hours before the toxicity measure. Cells were exposed for 24 hours to the compounds at different concentrations (from 10^−5 to 10^−9), quantitative assessment of cell death was made by measurement of the intracellular enzyme lactate dehydrogenase (LDH) (citotoxicity detection kit, Roche). The cuantity of LDH was evaluated in a microplate reader Anthos 2010, at 492 and 620 nm. Controls were taken as 100% viability.

[4] = biological target: AChE peripheral site (Homo sapiens, UniProt P22303); assay: Propidium competition (fluorescence); assay type: binding; conditions: 20 μM propidium iodide, AChE incubated at least 6 hours with compound
Method: Fluorescence was measured in a Fluostar optima plate reader (BMG). Measurements were carried out in 100 μl solution volume, in 96-well plates. The buffer used was 1 mM Tris/HCl, pH 8.0. […] AChE was incubated, at least 6 hours, with the molecules at different concentrations. 20 μM propidium iodide was added 10 min before fluorescence measurement.

[5] = test system: SH—SY5Y cells exposed to H2O2; assay: Antioxidant activity (H2O2 exposure, LDH viability); assay type: cell-based, human; conditions: 1 hour pretreatment, 24 hours H2O2, LDH
Method: In order to evaluate if these compounds have antioxidant properties cells SH—SY5Y were exposed 24 hours to […] H2O2, previously these cells were pretreated for 1 hour with the molecules at different concentrations (from 10^−5 to 10^−9). The antioxidant activity is evaluated measuring cellular viability, using the LDH assay. Cells SH—SY5Y were cultured in 96-well plates as toxicity experiments.

T2 sequence (P06276 29-602): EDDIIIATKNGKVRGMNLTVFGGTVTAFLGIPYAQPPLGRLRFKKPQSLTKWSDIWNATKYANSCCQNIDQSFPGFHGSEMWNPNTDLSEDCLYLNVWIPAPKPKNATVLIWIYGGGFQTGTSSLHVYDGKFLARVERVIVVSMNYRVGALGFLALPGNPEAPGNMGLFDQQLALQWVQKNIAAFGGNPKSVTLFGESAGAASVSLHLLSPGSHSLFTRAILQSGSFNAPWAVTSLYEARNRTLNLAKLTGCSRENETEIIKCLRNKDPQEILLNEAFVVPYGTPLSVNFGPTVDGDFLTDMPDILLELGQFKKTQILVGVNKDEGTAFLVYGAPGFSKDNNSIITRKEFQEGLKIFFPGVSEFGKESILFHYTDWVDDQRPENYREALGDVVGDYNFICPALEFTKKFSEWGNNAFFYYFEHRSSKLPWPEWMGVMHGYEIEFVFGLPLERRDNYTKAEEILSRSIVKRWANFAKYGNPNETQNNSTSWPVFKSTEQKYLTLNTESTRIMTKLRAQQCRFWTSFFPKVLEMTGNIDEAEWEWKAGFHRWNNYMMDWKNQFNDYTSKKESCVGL
AChE peripheral site, sequence (P22303 32-614): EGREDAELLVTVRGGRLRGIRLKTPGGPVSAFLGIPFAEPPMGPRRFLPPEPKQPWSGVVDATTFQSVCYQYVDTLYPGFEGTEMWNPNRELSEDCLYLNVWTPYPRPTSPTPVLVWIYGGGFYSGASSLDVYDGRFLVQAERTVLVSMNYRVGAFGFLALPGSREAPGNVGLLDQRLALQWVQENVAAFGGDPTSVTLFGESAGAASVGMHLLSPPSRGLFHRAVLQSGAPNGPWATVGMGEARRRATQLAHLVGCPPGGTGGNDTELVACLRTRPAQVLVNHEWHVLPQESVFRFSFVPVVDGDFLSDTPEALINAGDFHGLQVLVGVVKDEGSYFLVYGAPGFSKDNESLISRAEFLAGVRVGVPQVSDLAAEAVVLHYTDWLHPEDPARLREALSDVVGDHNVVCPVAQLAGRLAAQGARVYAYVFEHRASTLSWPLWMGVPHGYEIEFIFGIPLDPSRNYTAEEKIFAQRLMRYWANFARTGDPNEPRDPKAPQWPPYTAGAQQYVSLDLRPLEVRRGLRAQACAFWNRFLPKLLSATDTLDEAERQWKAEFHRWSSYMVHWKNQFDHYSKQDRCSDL

For `CN(CCCNc1c2c(nc3ccccc13)CCCC2)CCCNc1c2ccccc2nc2ccccc12` [Compound 21], the IC50 [1] was 4 nM, the IC50 [2] was 70 nM and the Toxicity [3] was >100 µM. For the same compound, the Propidium competition [4] was 1000 µM and the Antioxidant activity [5] was 10 µM.
